26 compounds from US10125121B2, “FYN kinase inhibitors” (ROTTAPHARM BIOTECH S.R.L., priority 2015, dated 2018) can be followed below.

Each structure is given as a SMILES string.

active FYN (human recombinant, 62.7 kDa), sequence (P06241 whole entry): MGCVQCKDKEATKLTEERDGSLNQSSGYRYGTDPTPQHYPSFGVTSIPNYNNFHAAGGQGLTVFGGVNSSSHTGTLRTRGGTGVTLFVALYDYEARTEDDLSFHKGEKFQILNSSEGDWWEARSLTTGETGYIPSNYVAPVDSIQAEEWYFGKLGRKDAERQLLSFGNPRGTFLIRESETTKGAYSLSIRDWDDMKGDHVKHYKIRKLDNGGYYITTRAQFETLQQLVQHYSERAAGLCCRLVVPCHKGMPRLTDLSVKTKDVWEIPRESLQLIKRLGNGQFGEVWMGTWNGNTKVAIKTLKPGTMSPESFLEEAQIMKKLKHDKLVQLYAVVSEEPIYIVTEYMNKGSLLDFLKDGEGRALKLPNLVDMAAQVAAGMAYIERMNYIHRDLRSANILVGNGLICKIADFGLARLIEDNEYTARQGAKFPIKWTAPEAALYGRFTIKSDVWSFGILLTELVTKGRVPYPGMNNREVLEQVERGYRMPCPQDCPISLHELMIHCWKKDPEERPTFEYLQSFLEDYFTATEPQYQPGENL

The experiment has as its target active FYN (human recombinant, 62.7 kDa) (Homo sapiens, UniProt P06241). The experiment in a line: In vitro kinase assay (Z′-LYTE FRET). It counts as biochemical. As to conditions: read-out: IC50(nM) FYN INHIBITION
On the procedure:
Assays to determine the kinase inhibitory activity of compounds were performed using an automatic liquid handling device (Microlab STAR Hamilton) and Z′-LYTE™ Kinase Assay Platform, a Fluorescence Resonance Energy Transfer (FRET)-based assay platform compatible with high-throughput screening (HTS) applications. The assay employs a fluorescence-based, coupled-enzyme format and utilizes the differential sensitivity of phosphorylated and non-phosphorylated peptides to proteolytic cleavage.
All reagents were diluted in reaction buffer and the kinase reaction was carried out in a total volume of 10 μl, for 60 minutes at 25° C. The 0% Phosphorylation (i.e. no ATP) and 100% Phosphorylation (i.e. synthetically phosphorylated peptide supplied) Assay Controls, included in each plate, allowed to calculate the percent phosphorylation achieved in the specific reaction well. The 0% Inhibition and 0% Phosphorylation (i.e. 100% Inhibition) Controls define the dynamic range in the screen. At the end of incubation, a secondary reaction (the Development Reaction) started by adding 5 μl of Development Reagent, containing a site-specific protease that recognizes and cleaves non-phosphorylated peptides, and was interrupted after 60 minutes with 5 μl/sample of Stop Reagent.
The compounds were tested in a range of concentrations 10^−6-10^−9 M.
Results are expressed as percentage of inhibition and the IC50 values were calculated by non-linear curve fitting using GraphPad™ Prism software.
For the compound `O=C(Nc1ccc(CN2CCN(c3nccc(Nc4cc(C5CC5)[nH]n4)n3)CC2)cc1)c1ccccc1` [Compound 1, N-(4-((4-(4-((5-cyclopropyl-1H-pyrazol-3-yl)amino)pyrimidin-2-yl)piperazin-1-yl)methyl)phenyl)benzamide], the IC50 worked out at 96 nM.
For `O=C(Nc1ccc(CN2CCN(c3nccc(Nc4cc(C5CC5)[nH]n4)n3)CC2)cc1)c1ccccc1F` [Compound 3, N-(4-((4-(4-((5-cyclopropyl-1H-pyrazol-3-yl)amino)pyrimidin-2-yl)piperazin-1-yl)methyl)phenyl)-2-fluorobenzamide] the value was 70 nM; for `O=C(Nc1ccc(CN2CCN(c3nccc(Nc4cc(C5CC5)[nH]n4)n3)CC2)cc1)c1ccccc1Cl` [Compound 5, 2-chloro-N-(4-((4-(4-((5-cyclopropyl-1H-pyrazol-3-yl)amino)pyrimidin-2-yl)piperazin-1-yl)methyl)phenyl)benzamide], 23 nM; for `CC(C)c1ccccc1C(=O)Nc1ccc(CN2CCN(c3nccc(Nc4cc(C5CC5)[nH]n4)n3)CC2)cc1` [Compound 6, N-(4-((4-(4-((5-cyclopropyl-1H-pyrazol-3-yl)amino)pyrimidin-2-yl)piperazin-1-yl)methyl)phenyl)-2-isopropylbenzamide], 89 nM.
For `COc1ccccc1C(=O)Nc1ccc(CN2CCN(c3nccc(Nc4cc(C5CC5)[nH]n4)n3)CC2)cc1` [Compound 7, N-(4-((4-(4-((5-cyclopropyl-1H-pyrazol-3-yl)amino)pyrimidin-2-yl)piperazin-1-yl)methyl)phenyl)-2-methoxy-benzamide] the value was 150 nM; for `O=C(Nc1ccc(CN2CCN(c3nccc(Nc4cc(C5CC5)[nH]n4)n3)CC2)cc1)c1cccc(C(F)(F)F)c1` [Compound 9, N-(4-((4-(4-((5-cyclopropyl-1H-pyrazol-3-yl)amino)pyrimidin-2-yl)piperazin-1-yl)methyl)phenyl)-3-(trifluoromethyl)benzamide], more than 1000 nM.
For `O=C(Nc1ccc(CN2CCN(c3nccc(Nc4cc(C5CC5)[nH]n4)n3)CC2)cc1)c1ccc(C(F)(F)F)cc1` [Compound 10, N-(4-((4-(4-((5-cyclopropyl-1H-pyrazol-3-yl)amino)pyrimidin-2-yl)piperazin-1-yl)methyl)phenyl)-4-(trifluoromethyl)benzamide] the value was 950 nM.
As for `O=C(Nc1ccc(CN2CCN(c3nccc(Nc4cc(C5CC5)[nH]n4)n3)CC2)cc1)c1ccc(F)cc1F` [Compound 11, N-(4-((4-(4-((5-cyclopropyl-1H-pyrazol-3-yl)amino)pyrimidin-2-yl)piperazin-1-yl)methyl)phenyl)-2,4-difluoro-Benzamide], the IC50 worked out at 16 nM.
For `COc1cc(C)ccc1C(=O)Nc1ccc(CN2CCN(c3nccc(Nc4cc(C5CC5)[nH]n4)n3)CC2)cc1` [Compound 15, N-(4-((4-(4-((5-cyclopropyl-1H-pyrazol-3-yl)amino)pyrimidin-2-yl)piperazin-1-yl)methyl)phenyl)-2-methoxy-4-methyl benzamide] the value was 220 nM; for `CS(=O)(=O)c1cccc(C(=O)Nc2ccc(CN3CCN(c4nccc(Nc5cc(C6CC6)[nH]n5)n4)CC3)cc2)c1` [Compound 16, N-(4-((4-(4-((5-cyclopropyl-1H-pyrazol-3-yl)amino)pyrimidin-2-yl)piperazin-1-yl)methyl)phenyl)-3-(methylsulfonyl)benzamide], 122 nM; for `CCc1cc(NC(=O)c2ccccc2F)ccc1CN1CCN(c2nc(C)cc(Nc3cc(C4CC4)[nH]n3)n2)CC1` [Compound 19, N-(4-((4-(4-((5-cyclopropyl-1H-pyrazol-3-yl)amino)-6-methylpyrimidin-2-yl)piperazin-1-yl)methyl)-3-ethylphenyl)-2-fluorobenzamide], 1020 nM.
On to `Cc1nc(C(=O)Nc2ccc(CN3CCN(c4nccc(Nc5cc(C6CC6)[nH]n5)n4)CC3)cc2)co1` [Compound 20, N-(4-((4-(4-((5-cyclopropyl-1H-pyrazol-3-yl)amino)pyrimidin-2-yl)piperazin-1-yl)methyl)phenyl)-2-methyloxazole-4-carboxamide], for which the IC50 was found to be 86 nM.
As for `Cc1nc(C(=O)Nc2ccc(CN3CCN(c4nccc(Nc5cc(C6CC6)[nH]n5)n4)CC3)nc2)c(C(F)(F)F)o1` [Compound 22, N-(6-((4-(4-((5-cyclopropyl-1H-pyrazol-3-yl)amino)pyrimidin-2-yl)piperazin-1-yl)methyl)pyridin-3-yl)-2-methyl-5-(trifluoromethyl)oxazole-4-carboxamide], the IC50 is 424 nM.
For `O=C(Nc1ccc(CN2CCN(c3nccc(Nc4cc(C5CC5)[nH]n4)n3)CC2)cc1)c1ccccn1` [Compound 24, N-(4-((4-(4-((5-cyclopropyl-1H-pyrazol-3-yl)amino)pyrimidin-2-yl)piperazin-1-yl)methyl)phenyl)picolinamide] the value was 1100 nM; for `Cc1cccnc1C(=O)Nc1ccc(CN2CCN(c3nccc(Nc4cc(C5CC5)[nH]n4)n3)CC2)cc1` [Compound 25, N-(4-((4-(4-((5-cyclopropyl-1H-pyrazol-3-yl)amino)pyrimidin-2-yl)piperazin-1-yl)methyl)phenyl)-3-methyl-picolinamide], 105 nM.
For `COc1ncccc1C(=O)Nc1ccc(CN2CCN(c3nccc(Nc4cc(C5CC5)[nH]n4)n3)CC2)cc1` [Compound 28, N-(4-((4-(4-((5-cyclopropyl-1H-pyrazol-3-yl)amino)pyrimidin-2-yl)piperazin-1-yl)methyl)phenyl)-2-methoxy-nicotinamide] the value was 237 nM; for `C[C@@H]1CN(c2nccc(Nc3cc(C4CC4)[nH]n3)n2)CCN1Cc1ccc(NC(=O)c2cccnc2C(F)(F)F)cc1` [Compound 30, (R)-N-(4-((4-(4-((5-cyclopropyl-1H-pyrazol-3-yl)amino)pyrimidin-2-yl)-2-methylpiperazin-1-yl)methyl)phenyl)-2-(trifluoromethyl)nicotinamide], 180 nM; for `C[C@H]1CN(c2nccc(Nc3cc(C4CC4)[nH]n3)n2)CCN1Cc1ccc(NC(=O)c2cccnc2C(F)(F)F)cc1` [Compound 31, (S)-N-(4-((4-(4-((5-cyclopropyl-1H-pyrazol-3-yl)amino)pyrimidin-2-yl)-2-methyl-piperazin-1-yl)methyl)phenyl)-2-(trifluoromethyl)nicotinamide], 667 nM.
For `Cn1cc(C(=O)Nc2ccc(CN3CCN(c4nccc(Nc5cc(C6CC6)[nH]n5)n4)CC3)cc2)c(C(F)(F)F)n1` [Compound 33, N-(4-((4-(4-((5-cyclopropyl-1H-pyrazol-3-yl)amino)pyrimidin-2-yl)piperazin-1-yl)-methyl)phenyl)-1-methyl-3-(trifluoromethyl)-1H-pyrazole-4-carboxamide] the value was 74 nM; for `Cn1ccnc1C(=O)Nc1ccc(CN2CCN(c3nccc(Nc4cc(C5CC5)[nH]n4)n3)CC2)cc1` [Compound 34, N-(4-((4-(4-((5-cyclopropyl-1H-pyrazol-3-yl)amino)pyrimidin-2-yl)piperazin-1-yl)methyl)phenyl)-1-methyl-1H-imidazole-2-carboxamide], 1450 nM; for `O=C(Nc1ccc(CN2CCN(c3nccc(Nc4cc(C5CC5)[nH]n4)n3)CC2)cc1)c1cnccn1` [Compound 35, N-(4-((4-(4-((5-cyclopropyl-1H-pyrazol-3-yl)amino)pyrimidin-2-yl)piperazin-1-yl)methyl)phenyl)pyrazine-2-carboxamide], 282 nM.
With `O=C(Nc1ccc(OC(F)(F)F)cc1)c1ccc(CN2CCN(c3nccc(Nc4cc(C5CC5)[nH]n4)n3)CC2)cc1` [Compound 37, 4-((4-(4-((5-cyclopropyl-1H-pyrazol-3-yl)amino)pyrimidin-2-yl)piperazin-1-yl)methyl)-N-(4-(trifluoromethoxy)phenyl)benzamide], the IC50 was more than 1000 nM.
`O=C(Nc1cccc(C(F)(F)F)c1)c1ccc(CN2CCN(c3nccc(Nc4cc(C5CC5)[nH]n4)n3)CC2)cc1` [Compound 38, 4-((4-(4-((5-cyclopropyl-1H-pyrazol-3-yl)amino)pyrimidin-2-yl)piperazin-1-yl)methyl)-N-(3-(trifluoromethyl)-phenyl)benzamide]: the half-inhibitory concentration (IC50) was more than 1000 nM.
For `O=C(Nc1ccc(C(F)(F)F)cc1)c1ccc(CN2CCN(c3nccc(Nc4cc(C5CC5)[nH]n4)n3)CC2)cc1` [Compound 39, 4-((4-(4-((5-cyclopropyl-1H-pyrazol-3-yl)amino)pyrimidin-2-yl)piperazin-1-yl)methyl)-N-(4-(trifluoromethyl)phenyl)-benzamide] the value was more than 1000 nM; for `O=S(=O)(Nc1ccc(CN2CCN(c3nccc(Nc4cc(C5CC5)[nH]n4)n3)CC2)cc1)c1ccccc1F` [Compound 40, N-(4-((4-(4-((5-cyclopropyl-1H-pyrazol-3-yl)amino)pyrimidin-2-yl)piperazin-1-yl)methyl)phenyl)-2-fluorobenzene-sulfonamide], 280 nM; for `O=C(Nc1ccc(CN2CCN(c3nccc(Nc4cc(C5CC5)[nH]n4)n3)CC2)nn1)c1ccccc1C(F)(F)F` [Compound 42, N-(6-((4-(4-((5-cyclopropyl-1H-pyrazol-3-yl)amino)pyrimidin-2-yl)piperazin-1-yl)methyl)pyridazin-3-yl)-2-(trifluoromethyl)benzamide], 663 nM.
